System: GM-CSF-producing CD4-positive memory T-cells
Experiment: GM-CSF-producing CD4-positive memory T-cells in PBMCs of MS patients after single oral dose (FACS)
Format: in vivo, human
Settings: 0.3 mg single oral
Experimental: A single dose of compound 31, which is a synthetic glycolipid of the present invention, described in the first aspect was orally administered to each of 2 MS patients (subjects) shown in Table 2 above after obtainment of informed consent. The dose was set to 0.3 mg per person.
Subsequently, T-cell subfractions were prepared from the peripheral blood of each subject by using the density gradient centrifugation method. First, a total of 20 mL of blood was collected from the vein of each subject 24 hours (1st day), 48 hours (2nd day), 72 hours (3rd day), 168 hours (7th day), and 192 hours (8th day) after the administration of compound 31 by using two 10-mL heparin sodium-containing vacuum blood collection tubes. For a control, 20 mL of blood was similarly collected from the vein of each subject one day before the administration of compound 31.
Hereinafter, peripheral blood mononuclear cells (PBMCs) were collected by the same operation as in Example 1.
The collected PBMCs were stained with antibodies by the following method. First, 10 μL of a solution consisting of 8 μL of PBS containing 0.5% BSA/2 mM EDTA-2Na, 0.5 μL of APC-Cy7-anti-CD3 antibody (BioLegend, Inc.), 0.5 μL of ECD-anti-CD8 antibody (Beckman Coulter, Inc.), and 1 μL of PB-anti-CD45RA antibody (BioLegend, Inc.) was added to 2×10^6 cells of PBMCs, thoroughly mixed by vortexing, and then left on ice for 10 minutes. CD3 is a detection marker of T-cells, and CD3^+ cells indicate being T-cells. Also, CD45RA is a detection marker of naive T-cells, and CD45RA^+ cells indicate being naive T-cells. Also, CD45RA^− cells indicate being memory T-cells. Furthermore, CD8^− cells indicate being CD4^+ cells. 1 mL of PBS containing 0.5% BSA/2 mM EDTA-2Na was added, and after centrifugation at 1500 rpm for 5 minutes, a supernatant was removed by suction. Next, 100 μL of BD FIX buffer (Becton, Dickinson and Company) was added dropwise while vortexed, and then left on ice for 20 minutes. 1 mL of MACS buffer was added again, and after centrifugation at 1500 rpm for 5 minutes, a supernatant was removed by suction. Subsequently, 1 mL of 0.1% saponin was added, and the resultant was left at room temperature under light shielding for 2 minutes.
Subsequently, the resultant was dispensed as 250 μL (I group) and 750 μL (II group), and after centrifugation at 2200 rpm for 5 minutes, a supernatant was removed by suction.
For group I, 11 μL of a solution consisting of 7 μL of 0.1% saponin, 1 μL of PerCP-Cy5.5-anti-mouse IgG1 antibody (BioLegend, Inc.), 1 μL of Alexa 488-anti-mouse IgG1 antibody (BioLegend, Inc.), 1 μL of APC-anti-mouse IgG1 antibody (BioLegend, Inc.), and 1 μL of PE-anti-rat IgG1 antibody (Becton, Dickinson and Company) was added, thoroughly mixed by vortexing, and then left on ice for 10 minutes. […]

Compound: CCCCCCCCCCCCCCCCCCCCCCCC(=O)NC(COC1OC(CO)C(O)C(O)C1O)[C@H](O)C(O)CCCCC (stereo in doubt) [compound 31, (2S,3S,4R)-1-O-(α-D-galactosyl)-2-(N-tetracosanoylamino)-1,3,4-nonanetriol]
- proportion of GM-CSF-producing CD4-positive memory T-cells in PBMCs (after administration vs day-1): decreased
- Abundance ratio of mCD4T (%) (day 1, GM-CSF-producing CD4-positive memory T-cells in PBMCs, day −1 value 9.64): 6.035%
- Abundance ratio of mCD4T (%) (day 3, day −1 value 9.64): 6.76%
- Abundance ratio of mCD4T (%) (day 7, day −1 value 9.64): 14.325%

— US12447167B2, “GM-CSF-producing t-cell control agent and Th1/Th2 immune balance regulator” (National Center of Neurology and Psychiatry, priority 2014, dated 2025)
